Laboratory results: patent US20230210110A1, “METHOD FOR INDUCING ENVIRONMENTAL STRESS TOLERANCE IN PLANTS” (AJINOMOTO CO., INC., priority 2020, published 2023)

Experiments:
Type in all cases: in vivo, Arabidopsis thaliana
[1] = tested on: RD29B and MAPKKK18; experiment: Effect of Lys derivatives and nitrogen-containing compounds on induction of environmental stress tolerance genes by ABA (activity level); details: for Activity level: total of induction activities of RD29B and MAPKKK18 with 1 mM compound and 0.25 μM ABA, relative to ABA alone taken as 1, >1 enhanced, 1 no effect, <1 suppressed; for effect on the gene expression inducing activity of ABA: 1 mM compound with 0.25 μM ABA
Experimental: (§1) Four to six young Arabidopsis thaliana plants grown on a 50% concentration MS (Murashige-Skoog) agar medium were transferred to a 6-well plate containing a 50% concentration MS (Murashige-Skoog) liquid medium and pre-cultured for 16 hours, then added with a treatment solution containing each amino acid alone or a treatment solution containing a combination of each amino acid and ABA, and left for 6 hours. Then, RNA was then isolated from the plants with a nucleic acid purification kit (Promega, Maxwell (registered trademark) 16 LEV simplyRNA Tissue Kit). Then, cDNA was synthesized with a cDNA synthesis reagent for real-time PCR (Toyobo, ReverTra Ace (registered trademark) qPCR RT Master Mix).
GAPDH is a glyceraldehyde-3-phosphate dehydrogenase gene and was selected as an internal standard.
Lys or each Lys derivative is used for treatment at 1 mM and ABA at 0.25 μM.

[2] = tested on: RD29A, RD29B, MAPKKK18, ABF3F and SLAC1 genes; experiment: Induction of expression of environmental stress tolerance (ABA-responsive) genes, real-time PCR, relative to GAPDH; details: for activity of synergistically enhancing the effect of ABA: RD29B expression, amino acid in combination with ABA
Experimental: as §1
MAPKKK18 is a gene encoding a kinase (MAPKKK18, MITOGEN-ACTIVATED PROTEIN KINASE KINASE KINASE 18) that functions in the ABA signaling pathway of Arabidopsis thaliana (Zelicourt A. et al., Trends in Plant Science 21: (2016)). RD29A and RD29B are genes encoding hydrophilic proteins (RESPONSIVE TO DESICCATION 29A, RESPONSIVE TO DESICCATION 29B) that are responsive for ABA and environmental stress such as drought stress and salinity stress and considered to be involved in stress tolerance and senescence suppression (Yang S. D. et al., Plant Cell 6: 2155-2168 (2011)). ABF3 is a gene encoding a transcription factor (ABA-responsive element-binding protein) that regulates expression of ABA-responsive genes (Yoshida T. et al., Plant, cell and Environment 38: 35-49 (2015)). SLAC1 is a gene encoding an anion channel involved in stomatal closure (Yoshida et al., J Plant Res (2016) 129:39-49). GAPDH is a glyceraldehyde-3-phosphate dehydrogenase gene and was selected as an internal standard.
The expression levels of the genes were calculated as relative expression levels to the GAPDH gene. Twenty amino acids were divided into 10 each, and the gene expression inducing activity when combined with ABA was evaluated in two tests (n=2).
(§2) The expression levels of the respective genes were calculated as relative expression levels to the GAPDH gene in the same manner as in Example 1.
Separately, Arabidopsis thaliana was treated with a combination of 0.1 mM, 0.25 mM, 1 mM, 2.5 mM, 10 mM, or 25 mM of Lys and 0.25 μM of ABA in the same manner as in Example 1, and expression of MAPKKK18, RD29A, and RD29B genes after 6 hours of treatment was analyzed (n=3). The expression levels of the respective genes were calculated as relative expression levels to the GAPDH gene in the same manner as in Example 1. […]
as §2, §2

[3] = tested on: RD29A, RD29B, MAPKKK18, ABF3F and SLAC1 genes; experiment: as above; details: amino acid alone or combination with ABA, 6 hours, n=3

O=C(NCCCC[C@H](NC(=O)OCC1c2ccccc2-c2ccccc21)C(=O)O)OCC1c2ccccc2-c2ccccc21 [compound 42]
Activity level [1]: >1

CC(C)[C@H](N)C(=O)O [Val, valine]
activity of synergistically enhancing the effect of ABA [2]: synergistically enhance the effect of ABA
activity to induce expression of the environmental stress tolerance gene RD29B ([2]; amino acid alone or combination with ABA, 6 hours, n=3): No activity

O=C(NCCCC[C@H](NC(=O)OCc1ccccc1)C(=O)O)OCC1c2ccccc2-c2ccccc21 [compound 41]
Activity level [1]: <1

CC(=O)NCCCC[C@H](N)C(=O)O [compound 8]
Activity level [1]: <1

CC(C)(C)OC(=O)NCCCC[C@H](NC(=O)OC(C)(C)C)C(=O)O [compound 37]
Activity level [1]: >1

O=C(NCCCC[C@H](NC(=O)OCc1ccccc1)C(=O)O)OCc1ccccc1 [compound 33]
Activity level [1]: >1

CC(C)(C)OC(=O)[C@@H](N)CCCCNC(=O)OCc1ccccc1 [compound 25]
effect on the gene expression inducing activity of ABA [1]: no effect
Activity level [1]: 1

Cc1ccc(C(NCCCC[C@H](NC(=O)OCC2c3ccccc3-c3ccccc32)C(=O)O)(c2ccccc2)c2ccccc2)cc1 [compound 43]
Activity level [1]: >1

N[C@@H](CCCCNC(=O)c1ccccc1)C(=O)O [compound 9]
Activity level [1]: <1

NCCCC[C@H](NC(=O)OCc1ccccc1)C(=O)O [compound 17]
Activity level [1]: >1

O=C(NCCCC[C@@H](NC(=O)OCc1ccccc1)C(=O)O)OCc1ccccc1 [compound 34]
Activity level [1]: >1

COC(=O)[C@H](CCCCNC(=O)OC(C)(C)C)NC(=O)OCc1ccccc1 [compound 29]
Activity level [1]: >1

O=C(NCCC[C@H](NC(=O)OCc1ccccc1)C(=O)O)OCc1ccccc1 [compound 18]
Activity level [1]: >1

O=C(O)[C@H](CCCCN1C(=O)c2ccccc2C1=O)N1C(=O)c2ccccc2C1=O [compound 45]
Activity level [1]: >1

CC(C)(C)OC(=O)NC[C@H](NC(=O)OCc1ccccc1)C(=O)O [compound 19]
Activity level [1]: >1

CC(C)(C)OC(=O)N[C@@H](CCCCNC(=O)OCc1cccc(Cl)c1)C(=O)O [compound 36]
Activity level [1]: >1

N[C@@H](CCCCNC(=O)OCc1ccccc1)C(=O)O [compound 11]
effect on the gene expression inducing activity of ABA [1]: no effect
Activity level [1]: 1

CC(=O)N[C@@H](CCCCN)C(=O)O [compound 15]
Activity level [1]: <1

CCC(C)C(=O)C(=O)N[C@@H](CCCCNC(=N)N)C(=O)O (some centres unmarked) [compound 21]
Activity level [1]: <1

Cn1c(=O)n(CCCC[C@H](NC(=O)c2c(Cl)cccc2Cl)C(=O)O)c(=O)c2ccccc21 [compound 46]
Activity level [1]: >1

Cc1cccc(OCC(=O)NCCCC[C@H](NC(=O)COc2cccc(C)c2)C(=O)O)c1 [compound 44]
Activity level [1]: >1

COC(=O)[C@@H](N)CCCCN [compound 7]
effect on the gene expression inducing activity of ABA [1]: no effect
Activity level [1]: 1

O=C(NCCCC[C@H](NC(=O)c1ccccc1)C(=O)O)c1ccccc1 [compound 30]
Activity level [1]: <1

N[C@@H](Cc1c[nH]c2ccccc12)C(=O)O [Trp, tryptophan]
activity to induce expression of the environmental stress tolerance gene RD29B [3]: No activity
activity of synergistically enhancing the effect of ABA [2]: synergistically enhance the effect of ABA

NCCCC[C@H](NC(=O)/C=C/c1ccccc1)C(=O)O [compound 16]
Activity level [1]: <1

CC(C)(C)OC(=O)NCCCC[C@H](NC(=O)OCC1c2ccccc2-c2ccccc21)C(=O)O [compound 39]
Activity level [1]: <1

N[C@H](CCCCNC(=O)c1ccccc1)C(=O)O [compound 10]
Activity level [1]: <1

CC(C)(C)OC(=O)NCCCC[C@H](N)C(=O)O [compound 12]
Activity level [1]: >1

O=C(NCCC[C@H](NC(=O)c1ccccc1)C(=O)O)c1ccccc1 [compound 6]
Activity level [1]: >1

CC(C)(C)OC(=O)N[C@@H](CCCCNC(=O)OCC1c2ccccc2-c2ccccc21)C(=O)O [compound 40]
Activity level [1]: >1

N[C@@H](CCCCNC(=O)OCc1ccccc1)C(=O)OCc1ccccc1 [compound 26]
Activity level [1]: <1

CC(C)(C)OC(=O)NCCCC[C@H](N)C(=O)OC(C)(C)C [compound 28]
effect on the gene expression inducing activity of ABA [1]: no effect
Activity level [1]: 1

O=C(NCCCCCNC(=O)c1ccccc1)c1ccccc1 [II-2]
Activity level [1]: > 1

CC(C)(C)OC(=O)NCCCC[C@H](NC(=O)OCc1ccccc1)C(=O)O [compound 32]
Activity level [1]: >1

CC(C)(C)OC(=O)NCC[C@H](NC(=O)OCc1ccccc1)C(=O)O [compound 20]
Activity level [1]: >1

CC(C)(C)OC(=O)N[C@@H](CCCCNC(=O)OC(F)(F)F)C(=O)O [compound 38]
Activity level [1]: >1

O=C(N[C@@H](CCCCNC(=O)c1ccccc1)C(=O)O)OCc1ccccc1 [compound 35]
Activity level [1]: >1

COC(=O)[C@@H](N)CCCCNC(=O)OC(C)(C)C [compound 27]
Activity level [1]: >1

N[C@H](CCCCNC(=O)OCc1ccccc1)C(=O)O [compound 13]
Activity level [1]: <1

COC(=O)[C@@H](N)CCCCNC(=O)OCc1ccccc1 [compound 24]
Activity level [1]: >1

CC(C)(C)OC(=O)N[C@@H](CCCCNC(=O)OCc1ccccc1)C(=O)O [compound 31]
Activity level [1]: >1

COC(=O)[C@H](CCCCN)NC(=O)OCc1ccccc1 [compound 22]
Activity level [1]: >1

NCCCC[C@H](NC(=O)OCc1ccccc1)C(=O)OCc1ccccc1 [compound 23]
Activity level [1]: <1

CN(C)CCCC[C@H](N)C(=O)O [compound 14]
Activity level [1]: >1
